# Assay: volumes of gas dissolved in teat dip solution under pressure
# Type: physicochemical
# Settings: standard room temperature and 100 psi pressure; TeatKote 10/111 dip solution
# Description: When a vessel containing the dip solution is pressurized, the gas mixture pressure causes the gasses to dissolve into the dip and an amount of energy caused by the pressurization acts upon the system. The system is allowed to come to equilibrium and the temperature is controlled such that any temperature rise caused by this energy introduction is removed. Henry's law states: “the amount of any given gas that will dissolve in a liquid at a given temperature is a function of the partial pressure of the gas that is in contact with the liquid and the solubility coefficient of the gas in the particular liquid.” In other words, the amount of gas that can be dissolved into a liquid depends on the temperature, the pressure, and how well the particular liquid absorbs gases. With that being said, in order to make a consistent application of the preparation as a foam on the teats of a cow, a consistent pressure and temperature is beneficial. A recirculation loop from the pressurized tank to the nozzle and back to the tank can, for example, be employed to make sure the temperature and dissolved gas content remain consistent with that of the dip mixture in the tank in an embodiment of the invention.
# In various embodiments of the invention, a pressure vessel is used to hold the dip solution and expose it to the propellant/diffused gas or gasses. […]
row,"volumes dissolved, gas versus dip solution",SMILES
1,approximately four,"[N-]=[N+]=O [Example N2O, nitrous oxide]"
2,approximately 4.5 volumes,"O=C=O [CO2, Carbon dioxide]"
